In patent publication US20240132484A1, “BROAD SPECTRUM ANTIVIRAL COMPOUNDS TARGETING THE SKI COMPLEX” (priority 2020, published 2024):
Where “and” joins values, the source holds several entries; their conditions need not be identical. Identical values can stand only once. Like-named read-outs stand apart in the source and are kept apart here.

How the values were obtained:
SARS2 = type: cell-based, SARS-CoV-2; settings: for Percentage Infection Relative to Appropriate DMSO Control / Infection Data: Percentage Infection Relative to Appropriate DMSO Control: avg background subtraction; for Percentage Inhibition Average 1 μM / Screening data (Relative infection to DMSO controls) Average 1 μM: SARS2, 1 μM; for Screening data (Relative infection to DMSO controls) Average 1 μM / Screening data (Relative infection to DMSO controls) Average 5 μM / Screening data (Relative infection to DMSO controls) Average 10 μM / Screening data (Relative infection to DMSO controls) Average 25 μM / Screening data (Relative infection to DMSO controls) Average 50 μM / Average (relative infection to DMSO over the 5 tested concentrations): 100=DMSO control; for Percentage Inhibition Average 5 μM / Screening data (Relative infection to DMSO controls) Average 5 μM: SARS2, 5 μM; for Percentage Inhibition Average 10 μM / Screening data (Relative infection to DMSO controls) Average 10 μM: SARS2, 10 μM; for Percentage Inhibition Average 25 μM / Screening data (Relative infection to DMSO controls) Average 25 μM: SARS2, 25 μM; for Percentage Inhibition Average 50 μM / Screening data (Relative infection to DMSO controls) Average 50 μM: SARS2, 50 μM; for Average (relative infection to DMSO over the 5 tested concentrations): SARS2, average over 1 to 50 uM; for Infection Data: Percentage Infection Relative to Appropriate DMSO Control: replicate wells; for Infection Data: Average, Mean: average of Exp 1-3 (SMW475, SMW477, SMW478), n 9
cells (nuclei count) = settings: for Relative cell count to DMSO controls, Average 1 μM / Relative cell count to DMSO controls, Average 5 μM / Relative cell count to DMSO controls, Average 10 μM / Relative cell count to DMSO controls, Average 25 μM / Relative cell count to DMSO controls, Average 50 μM: toxicity data, 100=DMSO control; for Relative cell count to DMSO controls, Average (for correlation analysis): average value over the 5 tested concentrations (1 to 50 uM); for Toxicity Data: Average, Mean: average of Exp 1-3 (SMW475, SMW477, SMW478), n 9

CCOc1cccc(CNCCc2ccccc2F)c1OCC(O)CN1CCN(C)CC1 (stereo not drawn) [SILCS3]
Percentage Infection Relative to Appropriate DMSO Control (SARS2; 1 uM, Exp 1 (SMW454), single wells): 102.18% and 96.08% and 79.31% | Percentage Infection Relative to Appropriate DMSO Control (SARS2; 5 uM, Exp 1 (SMW454), single wells): 110.38% and 99.87% and 94.40% | Percentage Infection Relative to Appropriate DMSO Control (SARS2; 10 uM, Exp 1 (SMW454), single wells): 98.93% and 87.99% and 82.55% | Percentage Infection Relative to Appropriate DMSO Control (SARS2; 25 uM, Exp 1 (SMW454), single wells): 73.36% and 69.10% and 58.07% | Percentage Infection Relative to Appropriate DMSO Control (SARS2; 50 uM, Exp 1 (SMW454), single wells): 38.76% and 39.55% and 35.10% | Infection Data, Average, Mean (SARS2; Average of Exp 1-3, n 9, 1 uM): 77.07% | Infection Data, Average, Mean (SARS2; Average of Exp 1-3, n 9, 5 uM): 48.45% | Infection Data, Average, Mean (SARS2; Average of Exp 1-3, n 9, 10 uM): 46.02% | Infection Data, Average, Mean (SARS2; Average of Exp 1-3, n 9, 25 uM): 22.24% | Infection Data, Average, Mean (SARS2; Average of Exp 1-3, n 9, 50 uM): 12.53% | Percentage Infection Relative to Appropriate DMSO Control (SARS2; Exp 2 (SMW466), 1 uM): 97.83% and 85.97% and 85.21% | Percentage Infection Relative to Appropriate DMSO Control (SARS2; Exp 2 (SMW466), 5 uM): 25.85% and 18.37% and 25.06% | Percentage Infection Relative to Appropriate DMSO Control (SARS2; Exp 2 (SMW466), 10 uM): 15.71% and 12.38% and 8.39% | Percentage Infection Relative to Appropriate DMSO Control (SARS2; Exp 2 (SMW466), 25 uM): −2.25% and −2.53% and 0.99% | Percentage Infection Relative to Appropriate DMSO Control (SARS2; Exp 2 (SMW466), 50 uM): −2.52% and −3.00% and 0.03% | Percentage Infection Relative to Appropriate DMSO Control (SARS2; Exp 3 (SMW480), 1 uM): 55.68% and 51.29% and 40.12% | Percentage Infection Relative to Appropriate DMSO Control (SARS2; Exp 3 (SMW480), 25 uM): 6.43% and −0.12% and −2.91% | Percentage Inhibition Average 1 μM (SARS2): 22.93% | Screening data (Relative infection to DMSO controls) Average 1 μM (SARS2): 77.07 | Percentage Inhibition Average 5 μM (SARS2): 51.55% | Screening data (Relative infection to DMSO controls) Average 5 μM (SARS2): 48.45 | Percentage Inhibition Average 10 μM (SARS2): 53.98% | Screening data (Relative infection to DMSO controls) Average 10 μM (SARS2): 46.02 | Percentage Inhibition Average 25 μM (SARS2): 77.76% | Screening data (Relative infection to DMSO controls) Average 25 μM (SARS2): 22.24 | Percentage Inhibition Average 50 μM (SARS2): 87.47% | Screening data (Relative infection to DMSO controls) Average 50 μM (SARS2): 12.53 | Average (relative infection to DMSO over the 5 tested concentrations) (SARS2): 41.26 | Relative cell count to DMSO controls, Average 1 μM (cells (nuclei count)): 114.7 | Relative cell count to DMSO controls, Average 5 μM (cells (nuclei count)): 125.56 | Relative cell count to DMSO controls, Average 10 μM (cells (nuclei count)): 124.47 | Relative cell count to DMSO controls, Average 25 μM (cells (nuclei count)): 117.43 | Relative cell count to DMSO controls, Average 50 μM (cells (nuclei count)): 86.97 | Toxicity Data, Average, Mean (cells (nuclei count); Average of Exp 1-3, n 9, 1 uM): 114.70% | Toxicity Data, Average, Mean (cells (nuclei count); Average of Exp 1-3, n 9, 5 uM): 125.56% | Toxicity Data, Average, Mean (cells (nuclei count); Average of Exp 1-3, n 9, 10 uM): 124.47% | Toxicity Data, Average, Mean (cells (nuclei count); Average of Exp 1-3, n 9, 25 uM): 117.43% | Toxicity Data, Average, Mean (cells (nuclei count); Average of Exp 1-3, n 9, 50 uM): 86.97% | Toxicity Data, nuclei count relative to DMSO controls (cells (nuclei count); Exp 1 (SMW454), 1 uM): 108.7% and 108.1% and 97.2% | Toxicity Data, nuclei count relative to DMSO controls (cells (nuclei count); Exp 1 (SMW454), 5 uM): 105.8% and 104.1% and 93.5% | Toxicity Data, nuclei count relative to DMSO controls (cells (nuclei count); Exp 1 (SMW454), 10 uM): 112.5% and 109.3% and 98.7% | Toxicity Data, nuclei count relative to DMSO controls (cells (nuclei count); Exp 1 (SMW454), 25 uM): 102.5% and 101.9% and 95.9% | Toxicity Data, nuclei count relative to DMSO controls (cells (nuclei count); Exp 1 (SMW454), 50 uM): 93.7% and 93.9% and 95.7% | Toxicity Data, nuclei count relative to DMSO controls (cells (nuclei count); Exp 2 (SMW466), 1 uM): 110.2% and 122.4% and 99.6% | Toxicity Data, nuclei count relative to DMSO controls (cells (nuclei count); Exp 2 (SMW466), 5 uM): 143.6% and 141.9% and 102.7% | Toxicity Data, nuclei count relative to DMSO controls (cells (nuclei count); Exp 2 (SMW466), 10 uM): 139.8% and 146.3% and 105.1% | Toxicity Data, nuclei count relative to DMSO controls (cells (nuclei count); Exp 2 (SMW466), 25 uM): 131.0% and 122.3% and 75.1% | Toxicity Data, nuclei count relative to DMSO controls (cells (nuclei count); Exp 2 (SMW466), 50 uM): 81.8% and 76.6% and 53.5% | Toxicity Data, nuclei count relative to DMSO controls (cells (nuclei count); Exp 3 (SMW480), 1 uM): 131.1% and 136.5% and 118.6% | Toxicity Data, nuclei count relative to DMSO controls (cells (nuclei count); Exp 3 (SMW480), 5 uM): 154.5% and 147.8% and 136.1% | Toxicity Data, nuclei count relative to DMSO controls (cells (nuclei count); Exp 3 (SMW480), 10 uM): 156.3% and 129.5% and 122.8% | Toxicity Data, nuclei count relative to DMSO controls (cells (nuclei count); Exp 3 (SMW480), 25 uM): 157.9% and 155.8% and 114.5% | Toxicity Data, nuclei count relative to DMSO controls (cells (nuclei count); Exp 3 (SMW480), 50 uM): 117.7% and 89.8% and 80.0% | Relative cell count to DMSO controls, Average (for correlation analysis) (cells (nuclei count)): 113.83

Cc1cc(CN(CCN(C)C)Cc2ccco2)sc1Br [SILCS15]
Infection Data: Percentage Infection Relative to Appropriate DMSO Control (SARS2; 1 uM, Exp 1 (SMW475)): 117.62% and 124.56% and 121.12% | Infection Data: Percentage Infection Relative to Appropriate DMSO Control (SARS2; 1 uM, Exp 2 (SMW477)): 103.78% and 103.22% and 100.05% | Infection Data: Percentage Infection Relative to Appropriate DMSO Control (SARS2; 1 uM, Exp 3 (SMW478)): 107.90% and 99.19% and 97.03% | Infection Data: Average, Mean (SARS2; 1 uM): 108.27% | Infection Data: Percentage Infection Relative to Appropriate DMSO Control (SARS2; 5 uM, Exp 1 (SMW475)): 131.70% and 141.65% and 132.54% | Infection Data: Percentage Infection Relative to Appropriate DMSO Control (SARS2; 5 uM, Exp 2 (SMW477)): 102.31% and 90.53% and 98.90% | Infection Data: Percentage Infection Relative to Appropriate DMSO Control (SARS2; 5 uM, Exp 3 (SMW478)): 98.36% and 110.89% and 93.32% | Infection Data: Average, Mean (SARS2; 5 uM): 111.13% | Infection Data: Percentage Infection Relative to Appropriate DMSO Control (SARS2; 10 uM, Exp 1 (SMW475)): 79.51% and 121.98% and 93.64% | Infection Data: Percentage Infection Relative to Appropriate DMSO Control (SARS2; 10 uM, Exp 2 (SMW477)): 75.81% and 72.41% and 82.10% | Infection Data: Percentage Infection Relative to Appropriate DMSO Control (SARS2; 10 uM, Exp 3 (SMW478)): 111.15% and 106.59% and 85.32% | Infection Data: Average, Mean (SARS2; 10 uM): 92.05% | Infection Data: Percentage Infection Relative to Appropriate DMSO Control (SARS2; 25 uM, Exp 1 (SMW475)): 30.31% and 27.68% and 26.54% | Infection Data: Percentage Infection Relative to Appropriate DMSO Control (SARS2; 25 uM, Exp 2 (SMW477)): 35.02% and 27.68% and 29.29% | Infection Data: Percentage Infection Relative to Appropriate DMSO Control (SARS2; 25 uM, Exp 3 (SMW478)): 35.78% and 39.52% and 32.45% | Infection Data: Average, Mean (SARS2; 25 uM): 31.59% | Infection Data: Percentage Infection Relative to Appropriate DMSO Control (SARS2; 50 uM, Exp 1 (SMW475)): 23.93% and 15.87% and 20.00% | Infection Data: Percentage Infection Relative to Appropriate DMSO Control (SARS2; 50 uM, Exp 2 (SMW477)): 18.29% and 18.14% and 19.12% | Infection Data: Percentage Infection Relative to Appropriate DMSO Control (SARS2; 50 uM, Exp 3 (SMW478)): 20.62% and 25.98% and 33.79% | Infection Data: Average, Mean (SARS2; 50 uM): 21.75% | Percentage Inhibition Average 1 μM (SARS2): −8.27% | Screening data (Relative infection to DMSO controls) Average 1 μM (SARS2): 108.27 | Percentage Inhibition Average 5 μM (SARS2): −11.13% | Screening data (Relative infection to DMSO controls) Average 5 μM (SARS2): 111.13 | Percentage Inhibition Average 10 μM (SARS2): 7.95% | Screening data (Relative infection to DMSO controls) Average 10 μM (SARS2): 92.05 | Percentage Inhibition Average 25 μM (SARS2): 68.41% | Screening data (Relative infection to DMSO controls) Average 25 μM (SARS2): 31.59 | Percentage Inhibition Average 50 μM (SARS2): 78.25% | Screening data (Relative infection to DMSO controls) Average 50 μM (SARS2): 21.75 | Average (relative infection to DMSO over the 5 tested concentrations) (SARS2): 72.96 | Toxicity Data: Average, Mean (cells (nuclei count); 1 uM): 105.96% | Relative cell count to DMSO controls, Average 1 μM (cells (nuclei count)): 105.96 | Toxicity Data: Average, Mean (cells (nuclei count); 5 uM): 104.00% | Relative cell count to DMSO controls, Average 5 μM (cells (nuclei count)): 104 | Toxicity Data: Average, Mean (cells (nuclei count); 10 uM): 107.75% | Relative cell count to DMSO controls, Average 10 μM (cells (nuclei count)): 107.75 | Toxicity Data: Average, Mean (cells (nuclei count); 25 uM): 115.74% | Relative cell count to DMSO controls, Average 25 μM (cells (nuclei count)): 115.74 | Toxicity Data: Average, Mean (cells (nuclei count); 50 uM): 65.19% | Relative cell count to DMSO controls, Average 50 μM (cells (nuclei count)): 65.19 | Relative cell count to DMSO controls, Average (for correlation analysis) (cells (nuclei count)): 99.73
